Key:
Bacteria = experiment: In vitro antimicrobial activity against gram-negative organisms (10)
Staphylococcus aureus [1] = experiment: In vitro antimicrobial activity against Staphylococcus aureus GC 2216 at 10.7 ug/ml soluble peptidoglycan; format: functional
Staphylococcus aureus [2] = experiment: In vitro antimicrobial activity against Staphylococcus aureus GC 1131 at 10.7 ug/ml soluble peptidoglycan; format: functional
Staphylococcus sp. [3] = experiment: In vitro antimicrobial activity against CNS GC 4538 at 10.7 ug/ml soluble peptidoglycan; format: functional
Staphylococcus aureus [4] = experiment: In vitro antimicrobial activity against Staphylococcus aureus GC 4536 at 10.7 ug/mL soluble peptidoglycan; format: functional
Candida albicans = experiment: In vitro antimicrobial activity against Candida albicans […] at 32 ug/ml soluble peptidoglycan; format: functional
Staphylococcus sp. [5] = experiment: In vitro antimicrobial activity against CNS GC 4547 at 10.7 ug/ml soluble peptidoglycan; format: functional
Enterococcus faecalis [6] = experiment: In vitro antimicrobial activity against Enterococcus faecalis GC 4555 at 10.7 ug/ml soluble peptidoglycan; format: functional
Enterococcus faecalis [7] = experiment: In vitro antimicrobial activity 10.7 ug/ml soluble peptidoglycan; format: functional
Enterococcus faecalis [8] = experiment: In vitro antimicrobial activity against Enterococcus faecalis GC 842 at 10.7 ug/ml soluble peptidoglycan; format: functional
Staphylococcus sp. [9] = experiment: In vitro antimicrobial activity against Coagulase-negative staphylococcus GC 4538 at 10.7 ug/ml soluble peptidoglycan; format: functional

Measured: MIC

COc1ccc(Cn2c(=O)ccn([C@@H]3OC([C@@H](O)[C@H](NCCCNC(=O)[C@H](NC(=O)OCc4ccccc4)C(O)C(C)C)C(=O)OC(C)(C)C)[C@@H](O[Si](C)(C)C(C)(C)C)[C@H]3O[Si](C)(C)C(C)(C)C)c2=O)cc1 (stereo partly specified)
32 µg/mL: Candida albicans
64 µg/mL: Bacteria | Enterococcus faecalis [6] | Enterococcus faecalis [7] | Enterococcus faecalis [8]
128 µg/mL: all other assays above

— ChEMBL document CHEMBL1145867, “Muraymycins, novel peptidoglycan biosynthesis inhibitors: synthesis and SAR of their analogues” (2003)
